# Measured values published in patent US9198431B2, “Use of N6-(2-hydroxyethyl)-adenosine in preparation of crop pesticide” (Zhejiang Subtropical Crops Research Institute, priority 2013, dated 2015).
# Columns and labels:
# Format in all cases: in vivo
# aphids = assay: Insecticidal activity on aphids; conditions: experimental data omitted
# diamondback moth larvae [1] = assay: Development retardation (weight gain inhibition) of diamondback moth larvae; conditions: for Average Weight (10 Tested Larvae) (mg) Δ4d: weight gain
# Description: (§1) Test Method: • Preparing N6-(2-hydroxyethyl)-adenosine solutions of various concentrations; • Diluting the 20% N6-(2-hydroxyethyl)-adenosine suspension to make solutions with 1000 mg/L, 800 mg/L, 600 mg/L, 400 mg/L, and 200 mg/L active ingredient concentrations, respectively, for testing the roles of N6-(2-hydroxyethyl)-adenosine in stomach poisoning of diamondback moth larvae. • Diluting the 20% N6-(2-hydroxyethyl)-adenosine suspending agent to make solutions with 300 mg/L, 250 mg/L, 200 mg/L, 150 mg/L and 100 mg/L active ingredient concentrations, respectively, to test the roles of N6-(2-hydroxyethyl)-adenosine in suppressing feeding and retarding development of diamondback moth larvae.
# Soak the cabbage leaves (7 cm in diameters) in the prepared solutions for 30 seconds, take the leaves out, leave them to dry, and then transfer the dried leaves to a Petri-dish (9 cm in diameter) cushioned with a wet filter paper. Inoculate 15 weighed third-instar diamondback moth larvae onto each Petri-dish. […] Prepare four replicas for each treatment group to determine the effects of various solutions in inhibiting the weight gain of the larvae.
# Weight-Gain Inhibition Rate (%)=[(the Average Weight Gain of the Control Group−the Average Weight Gain of the Treatment Group)÷the Average Weight Gain of the Control Group]×100.
# (§2) The results obtained were analyzed for significances of difference using Ducan's New Multiple Range Method. The various lowercase letters following the data in the same column indicate significant differences at a level of 0.05 level (P<0.05). The various capital letters following the data in the same column indicate significant differences at a level of 0.01 (P<0.01).
# diamondback moth larvae [2] = assay: Selective antifeeding (feeding suppression), leaf disk dipping; conditions: for Selective antifeeding rate: third-instar larvae
# Description: as §1
# (§3) Round leaf disk dipping method was employed in this test. Prepare leaf disks out of cabbage leaves with a round hole puncher (d=2 cm), and soak the disks in N6-(2-hydroxyethyl)-adenosine solutions with different concentrations for 30 seconds. Then, take the leaf disks out and drain the excessive solution with clean blotting paper to prepare them for treatments. Use 0.1% triton solution as a blank control.
# Put a good-size piece of filter paper in a Petri-dish, and then put two processed and two control leaf disks into the same Petri-dish, which are arrayed in a cross fashion. Inoculate three third-instar diamondback moth larvae that have been subjected to 4-hour starvation treatments onto the leaf disks and seal the dish. Prepare 10 replicas for each treatment group. After 48 hours, pick five replicas with 0% death rate to measure the leaf areas that have been consumed by the larvae with a grid paper and calculate the average leaf consumption areas. Antifeeding Rate (%)=[(Leaf Consumption Area in the Control Group−Leaf Consumption Area in the Treatment Group)÷(Leaf Consumption Area in the Control Group+Leaf Consumption Area in the Treatment Group)]×100.
# diamondback moth larvae [3] = assay: Stomach poisoning (oral toxicity) of diamondback moth larvae; conditions: for Average Corrected Death Rate (%), stomach poisoning: 96 h
# Description: Test Insects: Artificial subculture breeding of diamondback moths collected at Xinqiao greenhouse vegetable field in Wenzhou was carried out in a thermostat illumination incubator and the second-instar larvae breeds of a consistent size and color were picked for tests.
# as §1
# Cut healthy, fresh cabbage leaves in small pieces that are 7 cm in diameters. Smear these pieces with various spore suspensions and leave them to dry naturally. Repeat the smearing process 3 times, and then put the leaves in plastic Petri-dishes with tiny holes that are 2 cm in diameter. Cover the dishes with nylon membranes to keep the leaves fresh.
# Pick out healthy indoor bred third-instar diamondback moth larvae of similar sizes with a writing brush, and inoculate them onto the cabbage leaves. Make 4 replicas of the treatments, each of which should contain 20 tested larvae. Cultivate the dishes in an incubator set to 25±1° C., 75˜80% relative humidity and 16 L:8D illumination. Observe and record the number of larvae that die of infection every day. Use 0.1% triton solution as a blank control and use the Abbott formula for correction of death rates. Corrected Death Rate (%)=[(Death Rate of the Treatment Group−Death Rate of the Control Group)/(1−Death Rate of the Control Group)]×100.
# as §2
# diamondback moth larvae [4] = assay: Non-selective antifeeding, leaf disk dipping; conditions: third-instar larvae
# Description: as §1, §3
# Put a good-sized piece of filter paper in a Petri-dish, and then put two processed leaf disks in the same Petri-dish and another two control leaf disks in a different dish. Inoculate three third-instar diamondback moth larvae that have been subjected to 4-hour starvation treatments onto the leaf disks and seal the dish. Prepare 10 replicas for each treatment group. After 48 hours, pick five replicas with 0% death rate to measure the leaf areas that have been consumed by the larvae with a grid paper and calculate the average leaf consumption areas. Non-Selective Antifeeding Rate (%)=[(Leaf Consumption Area in the Control Group—Leaf Consumption Area in the Treatment Group)÷Leaf Consumption Area in the Control Group]×100.
smiles,measurement,setting,value
OCCNc1ncnc2c1ncn2[C@@H]1O[C@H](CO)[C@@H](O)[C@H]1O [N6-(2-hydroxyethyl)-adenosine],Insecticidal activity on aphids,aphids,able to kill aphids
same,Average Weight (10 Tested Larvae) (mg) Δ4d,diamondback moth larvae [1]; 100 mg/L,4.13 mg
same,Average Weight (10 Tested Larvae) (mg) Δ4d,diamondback moth larvae [1]; 150 mg/L,2.40 mg
same,Average Weight (10 Tested Larvae) (mg) Δ4d,diamondback moth larvae [1]; 200 mg/L,1.33 mg
same,Average Weight (10 Tested Larvae) (mg) Δ4d,diamondback moth larvae [1]; 250 mg/L,0.65 mg
same,Average Weight (10 Tested Larvae) (mg) Δ4d,diamondback moth larvae [1]; 300 mg/L,0.48 mg
same,inhibition at 100 µg/mL,"diamondback moth larvae [1]; Plutella xylostella, 72 h, 100 mg/L, 3 days after treatment, third-instar larvae, read-out: Weight Gain Inhibition Rate (%)",18.3%
same,inhibition at 150 µg/mL,"diamondback moth larvae [1]; Plutella xylostella, 72 h, 150 mg/L, 3 days after treatment, third-instar larvae, read-out: Weight Gain Inhibition Rate (%)",52.5%
same,inhibition at 200 µg/mL,"diamondback moth larvae [1]; Plutella xylostella, 72 h, 200 mg/L, 3 days after treatment, third-instar larvae, read-out: Weight Gain Inhibition Rate (%)",73.8%
same,inhibition at 250 µg/mL,"diamondback moth larvae [1]; Plutella xylostella, 72 h, 250 mg/L, 3 days after treatment, third-instar larvae, read-out: Weight Gain Inhibition Rate (%)",87.1%
same,inhibition at 300 µg/mL,"diamondback moth larvae [1]; Plutella xylostella, 72 h, 300 mg/L, 3 days after treatment, third-instar larvae, read-out: Weight Gain Inhibition Rate (%)",90.6%
same,Selective antifeeding rate,"diamondback moth larvae [2]; 200 mg/L, 48 hour",71.30%
same,Selective antifeeding rate,"diamondback moth larvae [2]; 250 mg/L, 48 hours",83.47%
same,Selective antifeeding rate,"diamondback moth larvae [2]; 300 mg/L, 48 hours",83.82%
same,Feeding capacity of the tested larvae (FIGS. 2 and 3),"diamondback moth larvae [2]; 300, 250, 200, 150 and 100 mg/L",clear declines in their feeding capacity
same,"Average Corrected Death Rate (%), stomach poisoning",diamondback moth larvae [3]; 800 mg/L,84.21%
same,"Average Corrected Death Rate (%), stomach poisoning",diamondback moth larvae [3]; 1000 mg/L,86.84%
same,Post-treatment death rates of the larvae,"diamondback moth larvae [3]; 25-hour post-treatment, 1000 to 200 mg/L",below 30%
same,Lethal effect on diamondback moth,diamondback moth larvae [3]; in vivo,strong lethal effect
same,Non-selective antifeeding rate,"diamondback moth larvae [4]; 200 mg/L, 48 hour",65.75%
same,Non-selective antifeeding rate,"diamondback moth larvae [4]; 250 mg/L, 48 hours",75.73%
same,Non-selective antifeeding rate,"diamondback moth larvae [4]; 300 mg/L, 48 hours",77.64%
